From patent US8178506B2, “Oligomeric compounds and compositions for use in modulation of small non-coding RNAs” (Regulus Therapeutics Inc., priority 2003, dated 2012)
In the oligonucleotide strings, read from the 5' end, every base follows the letter of its sugar. An asterisk marks phosphorothioate; unmarked linkages are phosphodiester. Other units and linkages are bracketed, terminal groups are in braces. A string of capitals states the bases alone. e = 2'-O-(2-methoxyethyl) (MOE); [5mC] = 5-methylcytosine; d = 2'-deoxy (DNA)

Tested on: mir-15a pri-miRNA
Test: mir-15a pri-miRNA expression in HepG2 cells (real-time RT-PCR)
Type: cell-based, human
Settings: for expression of the mir-15a pri-miRNA molecule: HepG2, 100 nM; for Expression of mir-15a pri-miRNA (% UTC): HepG2 cells, 100 nM, real-time RT-PCR
Description: Using the real-time RT-PCR methods described in Example 19, the expression levels of the mir-15a pri-miRNA were compared in HepG2 cells treated with a nested series of chimeric gapmer oligomeric compounds, targeting and spanning the entire length of the mir-15a pri-miRNA; these compounds are shown in Table 45, below. […] All cytidine residues are 5-methylcytidines. Using the transfection methods described herein, HepG2 cells were treated with 100 nM of each of these gapmer oligomeric compounds. Total RNA was isolated from HepG2 cells by lysing cells in 1 mL TRIZOL™ (Invitrogen) using the manufacturer's recommended protocols. Real-time RT-PCR analysis was performed using a primer/probe set specific for the mir-15a pri-miRNA molecule to assess the effects of these compounds on expression of the mir-15a pri-miRNA molecule. ISIS 339317 ([…]; SEQ ID NO.: 885) was used as the forward primer, ISIS 339318 (TGGCCTGCACCTTTTCAAA; SEQ ID NO.: 886) was used as the reverse primer, and ISIS 339319 ([…]; SEQ ID NO.: 887) was used as the probe. Total RNA was quantified using RiboGreen™ RNA quantification reagent (Molecular Probes, Inc. Eugene, Oreg.), expression levels observed for each target are normalized to 5.8S rRNA, and values are expressed relative to the untreated control. Inhibition of expression of the mir15a pri-miRNA by these gapmer oligomeric compounds is expressed as a percentage of RNA levels in untreated control cells.

| Substance | expression of the mir-15a pri-miRNA molecule | Expression of mir-15a pri-miRNA (% UTC) |
| --- | --- | --- |
| ISIS 347966: 5-10-5 2′-MOE gapmer PS; targets mir-15a pri-miRNA (antisense eT*eG*e[5mC]*eT*eA*d[5mC]*dT*dT*dT*dA*d[5mC]*dT*d[5mC]*d[5mC]*dA*eA*eG*eG*eT*eT) | significant inhibition of expression of the mir-15a pri-miRNA molecule |  |
| 347975 (eT*eT*eT*eT*eG*dA*dG*dG*d[5mC]*dA*dG*d[5mC]*dA*d[5mC]*dA*eA*eT*eA*eT*eG; antisense) [compound 347975] |  | 9.2 |
| 347977 (eT*eT*eG*eT*eA*dT*dT*dT*dT*dT*dG*dA*dG*dG*d[5mC]*eA*eG*e[5mC]*eA*e[5mC]) [compound 347977] |  | 111.3 |
| 347982 (eT*eT*e[5mC]*eA*eG*dA*dA*dG*dA*dT*d[5mC]*dA*dG*dA*dT*e[5mC]*e[5mC]*eT*eT*eG; antisense) [compound 347982] |  | 82.2 |
| 347968 (e[5mC]*e[5mC]*eT*eG*e[5mC]*dA*d[5mC]*d[5mC]*dT*dT*dT*dT*d[5mC]*dA*dA*eA*eA*eT*e[5mC]*e[5mC]; antisense) [compound 347968] |  | 8.4 |
| 347966 (eT*eG*e[5mC]*eT*eA*d[5mC]*dT*dT*dT*dA*d[5mC]*dT*d[5mC]*d[5mC]*dA*eA*eG*eG*eT*eT; antisense) [compound 347966] |  | 39.2 |
| 347976 (eT*eA*eT*eT*eT*dT*dT*dG*dA*dG*dG*d[5mC]*dA*dG*d[5mC]*eA*e[5mC]*eA*eA*eT; antisense) [compound 347976] |  | 73.0 |
| 347983 (eA*eA*eA*eT*eA*dT*dA*dT*dT*dT*dT*d[5mC]*dT*dT*d[5mC]*eA*eG*eA*eA*eG; antisense) [compound 347983] |  | 13.0 |
| 347969 (eT*eG*eG*e[5mC]*e[5mC]*dT*dG*d[5mC]*dA*d[5mC]*d[5mC]*dT*dT*dT*dT*e[5mC]*eA*eA*eA*eA; antisense) [compound 347969] |  | 39.5 |
| ISIS 347975: 5-10-5 2′-MOE gapmer PS; targets mir-15a pri-miRNA (antisense eT*eT*eT*eT*eG*dA*dG*dG*d[5mC]*dA*dG*d[5mC]*dA*d[5mC]*dA*eA*eT*eA*eT*eG) | significant inhibition of expression of the mir-15a pri-miRNA molecule |  |
| ISIS 347967: 5-10-5 2′-MOE gapmer PS; targets mir-15a pri-miRNA (antisense eG*e[5mC]*eA*e[5mC]*e[5mC]*dT*dT*dT*dT*d[5mC]*dA*dA*dA*dA*dT*e[5mC]*e[5mC]*eA*e[5mC]*eA) | stimulate an increase in expression levels of the mir-15a pri-miRNA |  |
